In publication PMC8578705 (Cell Reports, 2021):

Experiments:
CFP-TRPML1 = target: T1, CFP-TRPML1 (Homo sapiens, UniProt Q9GZU1); assay: ER Ca2+ release from permeabilized HEK cells expressing CFP-TRPML1; type: cell-based
T1 construct: host or cells: HEK cells, transient transfection
Description: Figure 4 Neither ER reorganization nor luminal Ca^2+ mediates quantal Ca^2+ release (A) Effects of the indicated concentrations of ML-SA1 on the ER Ca^2+ content of permeabilized HEK cells expressing CFP-TRPML1. (B) Semi-logarithmic plots show mono-exponential loss of ER Ca^2+ after treatment with ML-SA1. Results (A and B) are typical of four experiments, each with duplicate determinations. Summary results are in Figure S5B. (C and D) Permeabilized DT40-IP3R1 cells were loaded to steady state with Ca^2+ before addition of thapsigargin (TG, 1 μM) to inhibit SERCAs. […] Results are typical of 29–36 experiments. […] See also Figure S5.
Incubation of cells with the acetoxymethylester (AM) of Mag-fluo 4 traps low-affinity forms of the indicator ( KdCa = 1.15 mM measured in situ) within the ER. Fluorescence, which is approximately linearly related to ER free [Ca^2+] (since [Ca^2+]ER < KdCa ), can then be used, without further calibration, to reliably report free [Ca^2+] within the ER lumen ([Rossi and Taylor, 2020]). The ER of DT40 or HEK293 cells was loaded with indicator by incubating cells with Mag-fluo 4 AM (20 μM, 60 min, 22°C) in HEPES-buffered saline (HBS: 135 mM NaCl, 5.9 mM KCl, 11.6 mM HEPES, 1.5 mM CaCl2, 11.5 mM glucose, 1.2 mM MgCl2, pH 7.3) as described ([Rossi et al., 2009]). […]

[1] = test system: mock-transfected HEK cells; assay: ER Ca2+ release from permeabilized mock-transfected HEK cells; type: cell-based, Homo sapiens; details: ML-SA1 0-100 μM
Procedure: Figure S5. Evidence that over-expressed TRPML1 releases Ca2+ from ER, and that erlin 2 does not mediate quantal Ca2+ release
Ca2+ uptake into the ER of permeabilized HEK cells was initiated by addition of ATP (1.5 mM), before adding CPA (10 μM) and then the indicated […]
concentration of ML-SA1 (0-100 μM).
(B) Summary results from experiments similar to those shown in Figure 4A show half-times (t1/2) for loss of ER Ca2+ evoked by the indicated concentrations of ML-SA1 (mean ± SEM, n = 4, each with 2 […]
(C) Addition of ATP (1.5 mM) to permeabilized HEK cells stimulates Ca2+ uptake into the ER, reported by the increase in Mag-fluo 4 fluorescence. The response is abolished by CPA (10 µM) added 60 s before ATP. Mean ± SEM, n = 4, each with 2 replicates. RFU, relative fluorescence units.
(D) Permeabilized HEK cells expressing CFP-TRPML1 were treated (60 min) with vehicle (DMSO), bafilomycin A1 (1 µM to inhibit the lysosomal H+ pump) or FCCP (10 µM to dissipate H+ gradients) before addition of ATP (1.5 mM) to initiate Ca2+ uptake. After addition of CPA (10 μM), ML-SA1 (30 µM) was added where indicated. Mean ± SD of 3 replicates. […]
(F) TIRFM images show expression of CFP-TRPML1 and EGFP-IP3R1 in HEK cells expressing both proteins, typical of 3 independent experiments (~10 cells in each). […] It was impracticable, when most CFP-TRPML1 is lysosomal, to quantify any colocalization with IP3Rs. […]

IP3R1 (HEK-IP3R1 cells) = target: T2, IP3R1 (HEK-IP3R1 cells) (Rattus norvegicus, UniProt P29994); assay: Ca2+ release from permeabilized HEK-IP3R1 cells; type: cell-based; details: at the concentrations used (heparin 10 mg/mL, dequalinium 50 μM, 2-APB 125 μM), permeabilized HEK-IP3R1 cells
T2 construct: expressed in transfected cells
T2 sequence (P29994 1-2735 isoform P29994-2): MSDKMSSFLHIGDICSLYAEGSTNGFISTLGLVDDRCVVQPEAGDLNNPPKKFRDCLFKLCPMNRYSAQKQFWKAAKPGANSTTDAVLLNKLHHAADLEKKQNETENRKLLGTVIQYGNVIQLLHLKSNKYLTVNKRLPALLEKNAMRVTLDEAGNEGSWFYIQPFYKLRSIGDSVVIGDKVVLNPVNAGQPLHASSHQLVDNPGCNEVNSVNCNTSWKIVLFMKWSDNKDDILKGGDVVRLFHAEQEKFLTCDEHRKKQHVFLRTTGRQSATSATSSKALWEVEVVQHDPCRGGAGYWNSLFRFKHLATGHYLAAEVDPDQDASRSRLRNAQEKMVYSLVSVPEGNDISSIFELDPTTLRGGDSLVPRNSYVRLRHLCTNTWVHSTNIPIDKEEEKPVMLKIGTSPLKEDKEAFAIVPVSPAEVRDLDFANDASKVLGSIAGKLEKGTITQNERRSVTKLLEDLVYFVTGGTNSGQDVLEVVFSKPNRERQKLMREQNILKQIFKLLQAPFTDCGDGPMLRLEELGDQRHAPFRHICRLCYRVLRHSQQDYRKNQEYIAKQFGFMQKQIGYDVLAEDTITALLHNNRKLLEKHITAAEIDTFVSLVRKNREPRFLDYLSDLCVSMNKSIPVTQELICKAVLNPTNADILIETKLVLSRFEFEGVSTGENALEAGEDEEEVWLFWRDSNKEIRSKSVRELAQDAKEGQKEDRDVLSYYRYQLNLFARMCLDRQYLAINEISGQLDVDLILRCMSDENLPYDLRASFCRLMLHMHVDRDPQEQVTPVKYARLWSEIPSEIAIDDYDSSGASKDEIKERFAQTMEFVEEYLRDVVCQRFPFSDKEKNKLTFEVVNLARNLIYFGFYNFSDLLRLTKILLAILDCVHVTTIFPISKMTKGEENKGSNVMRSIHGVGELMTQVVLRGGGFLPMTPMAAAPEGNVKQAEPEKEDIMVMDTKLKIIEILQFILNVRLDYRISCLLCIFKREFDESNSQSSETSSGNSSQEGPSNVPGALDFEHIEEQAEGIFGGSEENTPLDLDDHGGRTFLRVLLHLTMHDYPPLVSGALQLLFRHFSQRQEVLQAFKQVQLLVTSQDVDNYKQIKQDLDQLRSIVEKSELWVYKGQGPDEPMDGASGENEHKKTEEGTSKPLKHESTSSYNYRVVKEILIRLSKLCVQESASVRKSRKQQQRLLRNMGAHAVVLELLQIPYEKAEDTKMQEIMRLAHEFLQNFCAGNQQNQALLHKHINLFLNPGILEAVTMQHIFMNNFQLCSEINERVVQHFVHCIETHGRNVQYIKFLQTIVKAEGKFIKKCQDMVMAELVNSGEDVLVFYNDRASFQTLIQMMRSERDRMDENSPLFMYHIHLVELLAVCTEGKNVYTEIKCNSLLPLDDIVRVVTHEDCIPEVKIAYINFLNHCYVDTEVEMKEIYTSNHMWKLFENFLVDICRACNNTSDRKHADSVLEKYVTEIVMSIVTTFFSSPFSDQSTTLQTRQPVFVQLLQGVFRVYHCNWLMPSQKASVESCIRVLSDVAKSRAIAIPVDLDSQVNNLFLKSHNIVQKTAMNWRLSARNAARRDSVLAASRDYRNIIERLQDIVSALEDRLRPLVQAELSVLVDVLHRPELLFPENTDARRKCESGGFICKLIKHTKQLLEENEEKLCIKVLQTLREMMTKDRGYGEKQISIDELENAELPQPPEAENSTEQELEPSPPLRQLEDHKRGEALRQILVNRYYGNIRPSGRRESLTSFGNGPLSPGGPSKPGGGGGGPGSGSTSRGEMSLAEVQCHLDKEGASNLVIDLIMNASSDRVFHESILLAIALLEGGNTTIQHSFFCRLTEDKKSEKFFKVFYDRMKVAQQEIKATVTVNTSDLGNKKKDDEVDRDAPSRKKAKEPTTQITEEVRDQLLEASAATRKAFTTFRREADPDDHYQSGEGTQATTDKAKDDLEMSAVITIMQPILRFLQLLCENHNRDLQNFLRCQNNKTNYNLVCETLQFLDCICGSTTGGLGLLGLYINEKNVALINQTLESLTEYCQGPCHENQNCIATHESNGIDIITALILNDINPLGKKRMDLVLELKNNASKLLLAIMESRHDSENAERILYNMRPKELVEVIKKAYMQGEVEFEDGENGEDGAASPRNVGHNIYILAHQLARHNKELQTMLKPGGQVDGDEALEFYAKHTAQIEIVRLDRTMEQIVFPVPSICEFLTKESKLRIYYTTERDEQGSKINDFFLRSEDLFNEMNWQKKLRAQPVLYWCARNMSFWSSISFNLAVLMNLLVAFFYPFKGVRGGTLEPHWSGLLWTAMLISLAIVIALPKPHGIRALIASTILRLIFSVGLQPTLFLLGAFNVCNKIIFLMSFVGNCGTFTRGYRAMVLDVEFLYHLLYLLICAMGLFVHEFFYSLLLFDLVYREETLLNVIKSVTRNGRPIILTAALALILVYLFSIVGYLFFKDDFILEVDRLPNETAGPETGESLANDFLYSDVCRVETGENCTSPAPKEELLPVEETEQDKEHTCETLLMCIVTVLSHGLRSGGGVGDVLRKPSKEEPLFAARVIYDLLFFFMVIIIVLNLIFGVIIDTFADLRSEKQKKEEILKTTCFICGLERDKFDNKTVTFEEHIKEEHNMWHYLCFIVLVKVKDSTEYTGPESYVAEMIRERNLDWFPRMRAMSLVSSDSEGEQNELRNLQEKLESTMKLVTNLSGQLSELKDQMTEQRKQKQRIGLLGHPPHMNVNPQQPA
Procedure: Fluorescence, which is approximately linearly related to ER free [Ca^2+] […] Ca^2+-free CLM comprised: 20 mM NaCl, 140 mM KCl, 1 mM EGTA, 20 mM PIPES, 2 mM MgCl2, pH 7.0. […] MgATP (1.5 mM) was added to initiate Ca^2+ uptake, and when the ER had loaded to steady state with Ca^2+ (∼150 s), ligands were added. Responses to the ligands show ER Ca^2+ contents as either time courses or, in summary results, as the Ca^2+ content recorded 20 s after addition of the stimulus. The distribution of samples across 96-well plates was varied between experiments to avoid any systematic ‘position-related’ artifacts. HEK-G-CEPIA1er cells were permeabilized and assayed as described for Mag-fluo 4-loaded cells.
For equilibrium binding and concentration-effect relationships, results from each experiment were fitted to Hill equations (PRISM) from which pIC50 (-log of half-maximal inhibitory concentration) or pEC50 (-log of half-maximally effective concentration) values were determined.

SERCAs = assay: Ca2+ uptake by the intracellular stores of permeabilized HEK-IP3R1 cells; type: cell-based, Homo sapiens; details: heparin 10 mg/mL
Procedure: Figure S6. Effects of heparin, 2-APB and dequalinium on IP3Rs and Ca2+ uptake by intracellular […]
Related to Figures 5 and 6.
(A) Structures of the antagonists used.
CLM at 20 °C. Mean ± SEM, n = 3.
(C-F) Permeabilized HEK-IP3R1 cells were loaded with Ca2+, and SERCA was then inhibited with CPA (10 μM) before addition of DMSO (1% v/v; C) or dequalinium (10-100 μM, D-F), and then the indicated […]
Mean of 2 replicates, typical of 5 experiments.
(G) Summary results (mean ± SEM, n = 5, each with duplicate determinations) show Ca2+ released by […]
ER Ca2+ content was measured 20
(H-J) Similar analyses of the effects of heparin (10 mg/mL, I) or 2-APB (125 μM, J). Means of 2 replicates, typical of 3-5 experiments.
(K) Effects of dequalinium (50 μM), heparin (10 mg/mL) or 2-APB (125 μM) on Ca2+ uptake by the intracellular stores of permeabilized HEK-IP3R1 cells. Mean ± SD of 4-6 replicates, typical of 4 […]
(L) and the rate of Ca2+ uptake (M). ER Ca2+ content was measured 180 s after addition of ATP (L).
Mean ± SEM, n = 4, each with 4-6 determinations. ****P < 0.0001, ***P < 0.001, *P < 0.05 one-way ANOVA with Bonferroni's test relative to control.

T1 sequence (Q9GZU1 whole entry): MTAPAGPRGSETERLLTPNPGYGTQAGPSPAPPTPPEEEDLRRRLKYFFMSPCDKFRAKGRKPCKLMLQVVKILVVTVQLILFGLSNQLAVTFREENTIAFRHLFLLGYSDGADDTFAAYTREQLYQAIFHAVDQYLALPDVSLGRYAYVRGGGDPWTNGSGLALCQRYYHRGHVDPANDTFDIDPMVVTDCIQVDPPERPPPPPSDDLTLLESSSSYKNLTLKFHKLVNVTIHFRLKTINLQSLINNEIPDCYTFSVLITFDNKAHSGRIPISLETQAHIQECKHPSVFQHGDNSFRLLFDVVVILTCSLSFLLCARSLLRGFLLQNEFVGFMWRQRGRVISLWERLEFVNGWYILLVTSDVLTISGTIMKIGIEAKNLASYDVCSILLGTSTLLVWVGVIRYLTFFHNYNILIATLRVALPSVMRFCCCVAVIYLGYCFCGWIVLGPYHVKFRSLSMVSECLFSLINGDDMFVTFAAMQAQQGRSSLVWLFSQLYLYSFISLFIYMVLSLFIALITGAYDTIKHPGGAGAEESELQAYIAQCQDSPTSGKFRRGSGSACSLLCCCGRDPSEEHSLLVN

Substance	Ca2+ release from the ER (CFP-TRPML1)	response to ML-SA1 [1]	block of IP3-evoked Ca2+ release (IP3R1 (HEK-IP3R1 cells))	effect on SERCAs (Ca2+ uptake) (SERCAs)
ML-SA1	concentration-dependent Ca^2+ release	do not respond	–	–
Heparin, sodium salt	–	–	completely	partial inhibition
